Measured values from US20250170088A1, “METHOD AND COMPOSITION FOR IMPROVING INTESTINAL MICROFLORA” (NANJING NUTRABUILDING BIO-TECH CO., LTD., priority 2022, published 2025).

What was measured:
Format in all cases: in vivo
Conditions in all cases: obese mice induced by high-fat diet, 200 mg tributyrin daily, 8 weeks
Megamonas = experiment: 16s rRNA sequencing of fecal samples, relative abundance change of Megamonas
Streptococcus gordonii = experiment: 16s rRNA sequencing of fecal samples, level of Streptococcus gordonii
Klebsiella = experiment: 16s rRNA sequencing of fecal samples, relative abundance change of Klebsiella
Akkermansia muciniphila = experiment: 16s rRNA sequencing of fecal samples, relative abundance change of Akkermansia muciniphila
Lactobacillus = experiment: 16s rRNA sequencing of fecal samples, relative abundance change of Lactobacillus

**Q.** With `CCCC(=O)OCC(COC(=O)CCC)OC(=O)CCC` [tributyrin, Tributyrin] as the compound, how does the “decrease of the level of Megamonas” value (Megamonas) read?
**A.** The value was 91%.

**Q.** And the “decrease of the level of Streptococcus gordonii” value (Streptococcus gordonii)?
**A.** Its value is “about 80%”.

**Q.** And the “decrease of the level of Klebsiella” value (Klebsiella)?
**A.** The value was 67%.

**Q.** And the “increase of the level of Akkermansia muciniphila” value (Akkermansia muciniphila)?
**A.** The value was 119%.

**Q.** And the “increase of the level of Lactobacillus” value (Lactobacillus)?
**A.** Its value is 101%.
